Test results: patent publication US10294202B2, “Pyrrolidinones as herbicides” (FMC Corporation, priority 2013, dated 2019)
Where two headings read alike, the source gives them in different places.

What was measured:
[1] = test system: giant foxtail; experiment: Test A pre-/postemergence herbicide test; type: in vivo, Setaria faberii; conditions: for Foxtail, Giant plant response rating: Preemergence, visual rating on 0 to 100 scale (0 no effect, 100 complete control); for pest or weed control at 125 g/ha / pest or weed control at 500 g/ha: Setaria faberi, 240 h, read-out: Plant response rating, Foxtail, Giant
Outline: (§1)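 Both application timings used compounds in a non-phytotoxic solvent plus surfactant. Pre-emergence: soil sprayed directly after seeding into loam/sand. Post-emergence: foliage of 2–10 cm seedlings (1–2 leaves) sprayed. Injury rated ~10 days later, 0–100.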

[2] = test system: corn; experiment: Test A pre-/postemergence herbicide test; type: in vivo, Zea mays; conditions: for Corn plant response rating: Preemergence, visual rating on 0 to 100 scale (0 no effect, 100 complete control); for Corn plant response rating (crop injury, 0 = no effect, 100 = complete kill) at 125 g/ha / Corn plant response rating (crop injury, 0 = no effect, 100 = complete kill) at 500 g/ha: Zea mays, 240 h
Outline: as §1

[3] = test system: wheat; experiment: Test A pre-/postemergence herbicide test; type: in vivo, Triticum aestivum; conditions: for Wheat plant response rating: Preemergence, visual rating on 0 to 100 scale (0 no effect, 100 complete control); for plant injury at 500 g/ha / plant injury at 125 g/ha: Triticum aestivum, 240 h, read-out: Plant response rating, Wheat
Outline: as §1

[4] = test system: johnsongrass; experiment: Test C pre-/postemergence herbicide test; type: in vivo, Sorghum halepense; conditions: Preemergence
Source text: (§2) Seeds of plant species selected from blackgrass (Alopecurus myosuroides), ryegrass, Italian (Italian ryegrass, Lolium multiflorum), wheat (winter wheat, Triticum aestivum), galium (catchweed bedstraw, Galium aparine), corn (Zea mays), crabgrass, large (large crabgrass, Digitaria sanguinalis), foxtail, giant (giant foxtail, Setaria faberii), johnsongrass (Sorghum halepense), lambsquarters (Chenopodium album), morningglory (Ipomoea coccinea), nutsedge, yellow (yellow nutsedge, Cyperus esculentus), pigweed (Amaranthus retroflexus), ragweed (common ragweed, Ambrosia elatior), soybean (Glycine max), barnyardgrass (Echinochloa crus-galli), oilseed rape (Brassica napus), waterhemp (common waterhemp, Amaranthus rudis), kochia (Kochia scoparia), oat, wild (wild oat, Avena fatua), surinam grass (Brachiaria decumbens), foxtail, green (green foxtail, Setaria viridis), goosegrass (Eleusine indica), bromegrass, downy (downy bromegrass, Bromus tectorum), nightshade (eastern black nightshade, Solanum ptycanthum), cocklebur (common cocklebur, Xanthium strumarium), cupgrass, woolly (woolly cupgrass, Eriochloa villosa), bermudagrass (Cynodon dactylon), sunflower, (common oilseed sunflower, Helianthus annuus), Russian thistle (Salsola kali) and velvetleaf (Abutilon theophrasti) were planted into a blend of loam soil and sand and treated preemergence with test chemicals formulated in a non-phytotoxic solvent mixture which included a surfactant. At the same time, plants selected from these crop and weed species and also barley (winter barley, Hordeum vulgare), […]), chickweed (common chickweed, Stellaria media), deadnettle (henbit deadnettle, Lamium amplexicaule), and canarygrass (littleseed canarygrass, Phalaris minor) were planted in pots containing Redi-Earth® planting medium (Scotts Company, 14111 Scottslawn Road, Marysville, Ohio 43041) comprising spaghnum peat moss, vermiculite, wetting agent and starter nutrients and treated with postemergence applications of test chemicals formulated in the same manner. Plants ranged in height from 2 to 18 cm (1- to 4-leaf stage) for postemergence treatments. Treated plants and controls were maintained in a greenhouse for 13 to 15 days, after which time all species were compared to controls and visually evaluated. Plant response ratings, summarized in Table C, are based on a scale of 0 to 100 where 0 is no effect and 100 is complete control. A dash (-) response means no test result.

[5] = test system: galium; experiment: Test C pre-/postemergence herbicide test; type: in vivo, Galium aparine; conditions: Preemergence; for Galium plant response rating: 31 g ai/ha
Source text: as §2

[6] = test system: foxtail, giant; experiment: Test C pre-/postemergence herbicide test; type: in vivo, Setaria faberii; conditions: Preemergence; for Foxtail, Giant plant response rating: 31 g ai/ha
Source text: as §2

[7] = test system: ragweed; experiment: Test C pre-/postemergence herbicide test; type: in vivo, Ambrosia elatior; conditions: Preemergence
Source text: as §2

[8] = test system: corn; experiment: Test C pre-/postemergence herbicide test; type: in vivo, Zea mays; conditions: Preemergence; for Corn plant response rating: 31 g ai/ha
Source text: as §2

[9] = test system: blackgrass; experiment: Test C pre-/postemergence herbicide test; type: in vivo, Alopecurus myosuroides; conditions: Preemergence; for Blackgrass plant response rating: 31 g ai/ha
Source text: as §2

[10] = Postemergence, 125 g ai/ha, 0 to 100 scale, 0 no effect, 100 complete control
[11] = Postemergence, 500 g ai/ha, 0 to 100 scale (0 no effect, 100 complete control)
[12] = preemergence, 500 g ai/ha, 0 to 100 scale
[13] = 125 g ai/ha, scale 0 to 100 (0 no effect, 100 complete control)
[14] = scale 0 to 100 (0 no effect, 100 complete control)
[15] = 250 g ai/ha, scale 0 to 100 (0 no effect, 100 complete control)
[16] = Postemergence, 125 g ai/ha, 0 to 100 scale, 0 is no effect, 100 is complete control
[17] = post-emergence, Postemergence, 125 g ai/ha, 0 to 100 scale, 0 no effect, 100 complete control
[18] = post-emergence, Postemergence, 500 g ai/ha, 0 to 100 scale (0 no effect, 100 complete control)
[19] = pre-emergence, preemergence, 500 g ai/ha, 0 to 100 scale

Row | SMILES | Plant response rating, Foxtail, Giant [1, 10] | Plant response rating, Foxtail, Giant [1, 11] | Foxtail, Giant plant response rating ([1]; 125 g ai/ha) | Plant response rating, Foxtail, Giant [1, 12] | Plant response rating, Corn [2, 10] | Plant response rating, Corn [2, 11] | Corn plant response rating ([2]; 125 g ai/ha) | Plant response rating, Corn [2, 12] | Plant response rating, Wheat [3, 11] | Wheat plant response rating ([3]; 125 g ai/ha) | Plant response rating, Wheat [3, 12] | Plant response rating, Johnsongrass ([4]; 62 g ai/ha, scale 0 to 100) | pest or weed control at 125 g/ha [1, 17] [%] | pest or weed control at 500 g/ha [1, 18] [%] | pest or weed control at 500 g/ha [1, 19] [%] | Corn plant response rating (crop injury, 0 = no effect, 100 = complete kill) at 125 g/ha [2, 17] [%] | Corn plant response rating (crop injury, 0 = no effect, 100 = complete kill) at 500 g/ha [2, 18] [%] | Corn plant response rating (crop injury, 0 = no effect, 100 = complete kill) at 500 g/ha [2, 19] [%] | plant injury at 500 g/ha [3, 18] [%] | plant injury at 500 g/ha [3, 19] [%] | also measured
1 | O=C1NCC(c2ccc(F)c(F)c2)C1C(=O)Nc1ccccc1C(F)(F)F (racemic) [Compound 6] | 70 | 80 | 90 | 90 | 0 | 0 | 0 | 0 | 0 | 0 | 0 | – | – | – | – | – | – | – | – | – | –
2 | O=C1NCC(c2ccc(Cl)c(Cl)c2)C1C(=O)Nc1ccccc1F (racemic) [Compound 14] | 60 | 80 | 80 | 90 | 0 | 0 | 0 | 0 | 0 | 0 | 0 | 0 | – | – | – | – | – | – | – | – | Plant response rating, Johnsongrass [4, 13]: 0; Plant response rating, Galium ([5]; 62 g ai/ha, scale 0 to 100): 0; Plant response rating, Galium [5, 13]: 70; Galium plant response rating [5, 14]: 0; Plant response rating, Galium [5, 15]: 85; Plant response rating, Foxtail, Giant ([6]; 62 g ai/ha, scale 0 to 100): 85; Plant response rating, Foxtail, Giant [6, 13]: 90; Foxtail, Giant plant response rating [6, 14]: 85; Plant response rating, Foxtail, Giant [6, 15]: 95; Plant response rating, Ragweed ([7]; 62 g ai/ha, scale 0 to 100): 0; Plant response rating, Ragweed [7, 13]: 0; Plant response rating, Corn ([8]; 62 g ai/ha, scale 0 to 100): 0; Plant response rating, Corn [8, 13]: 0; Corn plant response rating [8, 14]: 0; Plant response rating, Corn [8, 15]: 0; Plant response rating, Blackgrass ([9]; 62 g ai/ha, scale 0 to 100): 0; Plant response rating, Blackgrass [9, 13]: 0; Blackgrass plant response rating [9, 14]: 0; Plant response rating, Blackgrass [9, 15]: 0; Plant response rating, Wheat [3, 10]: 0
3 | O=C1NCC(c2cccc(C(F)F)c2)C1C(=O)Nc1ccccc1F (racemic) [Compound 210] | – | – | – | – | – | – | – | – | – | – | – | – | – | – | – | – | – | – | – | – | Plant response rating, Foxtail, Giant ([1]; 125 g ai/ha, visual rating, 0 to 100 scale, 0 no effect, 100 complete control, approximately 10 days, preemergence): 80; Plant response rating, Foxtail, Giant [1, 16]: 50; Foxtail, Giant plant response rating (0 to 100 scale, 0 is no effect, 100 is complete control) ([1]; Postemergence, 500 g ai/ha): 90; Plant response rating, Foxtail, Giant ([1]; preemergence, 500 g ai/ha, 0 to 100 scale, 0 is no effect and 100 is complete control): 90; Plant response rating, Corn [2, 16]: 0; Corn plant response rating (0 to 100 scale, 0 is no effect, 100 is complete control) ([2]; Postemergence, 500 g ai/ha): 60; Plant response rating, Wheat [3, 16]: 0; Wheat plant response rating (0 to 100 scale, 0 is no effect, 100 is complete control) ([3]; Postemergence, 500 g ai/ha): 50
4 | O=C1NCCC1C(=O)N(c1ccc(F)c(F)c1)c1ccccc1F (stereo not drawn) [Compound 5, N-(3,4-difluorophenyl)-N-(2-fluorophenyl)-2-oxo-3-pyrrolidinecarboxamide] | – | – | 90 | – | – | – | 0 | – | – | 0 | – | 0 | 80 | 80 | 100 | 0 | 0 | 0 | 0 | 0 | Plant response rating, Johnsongrass [4, 13]: 0; Plant response rating, Galium ([5]; 62 g ai/ha, scale 0 to 100): 5; Galium plant response rating [5, 14]: 0; Plant response rating, Galium [5, 15]: 40; Plant response rating, Foxtail, Giant ([6]; 62 g ai/ha, scale 0 to 100): 100; Plant response rating, Foxtail, Giant [6, 13]: 100; Foxtail, Giant plant response rating [6, 14]: 95; Plant response rating, Foxtail, Giant [6, 15]: 100; Plant response rating, Ragweed ([7]; 62 g ai/ha, scale 0 to 100): 0; Plant response rating, Ragweed [7, 13]: 0; Plant response rating, Corn ([8]; 62 g ai/ha, scale 0 to 100): 0; Plant response rating, Corn [8, 13]: 0; Corn plant response rating [8, 14]: 0; Plant response rating, Corn [8, 15]: 0; Plant response rating, Blackgrass ([9]; 62 g ai/ha, scale 0 to 100): 0; Plant response rating, Blackgrass [9, 13]: 0; Blackgrass plant response rating [9, 14]: 0; Plant response rating, Blackgrass [9, 15]: 30
5 | O=C1NCC(Br)(c2ccccc2)C1C(=O)Nc1ccccc1F (stereo not drawn) [Compound 92, 4-bromo-N-(2-fluorophenyl)-2-oxo-4-phenyl-3-pyrrolidinecarboxamide] | – | – | 0 | – | – | – | 0 | – | – | 0 | – | – | 0 | 10 | 90 | 0 | 0 | 0 | 0 | 0 | plant injury at 125 g/ha [3, 17]: 0%
6 | O=C1NCC(c2ccccc2)C1(Br)C(=O)Nc1ccccc1F (stereo not drawn) [Compound 93, 3-bromo-N-(2-fluorophenyl)-2-oxo-4-phenyl-3-pyrrolidinecarboxamide] | – | – | 80 | – | – | – | 0 | – | – | 0 | – | – | 10 | 60 | 90 | 0 | 0 | 0 | 0 | 0 | plant injury at 125 g/ha [3, 17]: 0%
